Measurements as given in patent US20230040357A1, “PHARMACEUTICAL COMPOSITION AND HEALTH FUNCTIONAL FOOD FOR PREVENTING, AMELIORATING OR TREATING DIABETES CONTAINING WASP EXTRACT AS ACTIVE INGREDIENT” (Andong National University Industry-Academic cooperation …, priority 2021, published 2023).
Values joined by “and” are separate entries in the source; they are usually repeats but may differ in a detail not shown here. Equal entries are not always repeated.

Tested on: human erythrocytes
Assay: human erythrocyte hemolytic activity
Type: cell-based
Settings: 37° C., 30 minutes
Method: In order to evaluate the acute toxicities of the wasp extracts, the human erythrocyte hemolytic activities of the wasp extracts were evaluated, and the results of the evaluation are shown in Table 3 below. At this time, the hemolytic activity was evaluated according to a previous report (Son Ho-Yong et al., 2014, Korean J. Microbiol. Biotechnol. 42: 285-292). Briefly, 100 μl of human erythrocytes were washed three times with PBS and added to a 96-well microplate, and 100 μl of a sample solution at various concentrations was added thereto and then allowed to react at 37° C. for 30 minutes. Thereafter, the reaction solution was centrifuged at 1,500 rpm for 10 minutes, and 100 μl of the supernatant was transferred to a fresh microtiter plate, and then the degree of hemoglobin leakage following hemolysis was measured at 414 nm. DMSO (2%) was used as a solvent control for the sample, and Triton X-100 (1 mg/ml) was used as an experimental control for hemolysis of erythrocytes. Hemolytic activity was calculated using the following equation.
(%) Hemolysis=[(Abs. S−Abs. C)/(Abs. T−Abs. C)]×100
Abs. S: absorbance of sample-added group
Abs. C: absorbance of DMSO-added group
Abs. T: absorbance of Triton X-100-added group

| Compound | Human erythrocyte hemolytic activity (1.0 mg/ml) | Human erythrocyte hemolytic activity (0.0032 mg/ml) [%] | Human erythrocyte hemolytic activity (0.0063 mg/ml) [%] | Human erythrocyte hemolytic activity (0.0125 mg/ml) [%] | Human erythrocyte hemolytic activity (0.05 mg/ml) [%] | Human erythrocyte hemolytic activity (0.1 mg/ml) [%] |
| --- | --- | --- | --- | --- | --- | --- |
| Triton X-100 | 100% and 100.0 ± 0.1% |  |  |  |  |  |
| C[C@@H]1[C@H](O)[C@@H](C)/C=C/C=C/C=C/C=C/C=C/C=C/C=C/[C@H](O[C@@H]2O[C@H](C)[C@@H](O)[C@H](N)[C@@H]2O)C[C@@H]2O[C@](O)(C[C@@H](O)C[C@@H](O)[C@H](O)CC[C@@H](O)C[C@@H](O)CC(=O)O[C@H]1C)C[C@H](O)[C@H]2C(=O)O [Amphotericin B] |  | 6.54 ± 0.9 | 21.6 ± 3.7 | 48.2 ± 5.9 | 72.4 ± 5.2 | 95.8 ± 0.3 |
